Assay results from patent US20060287233A1, “Method of use of antagonists of zonulin to prevent the loss of or to regenerate pancreatic cells” (priority 2005, published 2006).
Entries after “also recorded” stand apart in the source; their conditions may differ. Ends that are not written are not given here.

Experiments:
rabbit ileum = assay: Tissue resistance (Rt) of rabbit ileum mounted in Ussing chambers
Procedure: Next, rabbit ileum mounted in Ussing chambers as described below, were exposed to 100 μg of FZI/O (SEQ ID NO:15), 100 μg of FZI/1 (SEQ ID NO:29), 1.0 μg of 6×His-ZOT (obtained as described in Example 1 of U.S. patent application Ser. No. 09/127,815, filed Aug. 3, 1998), 1.0 μg of zonulini (obtained as described in Example 3 of U.S. patent application Ser. No. 09/127,815, filed Aug. 3, 1998), or 1.0 μg of zonulinh (obtained as described in Example 3 of U.S. patent application Ser. No. 09/127,815, filed Aug. 3, 1998), alone; or pre-exposed for 20 min to 100 μg of FZI/O or FZI/1, at which time 1.0 μg of 6×His-ZOT, 1.0 μg of zonulini, or 1.0 μg of zonulinh was added. ΔRt was then calculated as Rt=PD/Isc where PD=potential difference and Isc=short circuit current.

BB/Wor rats = assay: Prevention of diabetes in BB/Wor rats, antagonist in drinking water; format: in vivo, rat; conditions: 10 μg/ml in drinking water, n=5
Procedure: Both groups were maintained on a standard diet of rat chow (Harlan Teklab Diet #7012). All food and water were previously autoclaved. Each day, daily water intake was measured and 100 ml of fresh water was given. The treated group received 10 μg/ml of the zonulin peptide antagonist (SEQ ID NO: 15) supplemented in the drinking water. The rats were housed in hepa-filter cages.
Diabetes in the rats was diagnosed as follows: The rats were weighed twice a week. Blood glucose was determined weekly using the OneTouch® glucose monitoring system (Johnson & Johnson). Each week, reagent strips for urinalysis were used to monitor glucose (Diastix®) and ketones (Ketositx®) (Bayer). Rats with a blood glucose >250 mg/dl were fasted overnight, and blood glucose levels >200 mg/dl were considered diabetic.
Following clinical presentation of diabetes, the rats were sacrificed as follows: the rats were anesthesized using ketamine anesthesia and a midline incision was made allowing access to the heart. An 18 G needle was placed into the heart and death occurred by exsanguinations. Then, zonulin assays were conducted as described above. […] According to Biomedical Research Models, Inc., 80% of diabetes prone rats present with diabetes by age 80 days.

BBDP rats = assay: Treatment of autoimmune diabetes in BBDP rats, therapy initiated after seroconversion; format: in vivo, rat
Procedure: A test group of 52-54 day old diabetes-prone rats were treated with a zonulin antagonist peptide AT1001 (SEQ ID NO:15) while an age matched control group was not treated. The antagonist was administered at this time because at 40 days these rats show an increase in zonulin levels and at 50 days autoimmune antibodies can be detected. Thus, treatment was started after […].
BBDP animals age 52-54 were days divided in two groups. Group 1 (n=20) received AT-1001 daily in drinking water+HCO3. Group 2 (n=10) received drinking water+HCO3. Animals were randomized to receive either placebo or treatment with the synthetic zonulin peptide inhibitor AT-1001 (SEQ ID:15) in their water supply in a blinded fashion during treatment arm T0. At the disease endpoint (fasting blood glucose>250 mg/dl), BBDP rats that developed T1D (60% incidence in placebo group, average age 110 days) were euthanized and blood and tissue samples collected. […] Serum zonulin and autoantibody levels were monitored at the beginning of the study and at its endpoint. Water intake was monitored daily, while weight gain and serum glucose levels were checked weekly. Rats with fasting blood glucose ≧250 mg/dl were considered diabetic and were sacrificed within 24 hours of reaching the diabetic status.

[1] = system: pancreatic islets of BBDP rats; assay: Histology and immunohistology of pancreata of BBDP rats; format: in vivo, rat; conditions: treated rats that did not develop T1D; listed as AT1001
Procedure: Samples of the pancreas were taken from animals that had been treated starting at day […] and examined. The results of the histological examination are shown in FIG. 9 and the results of the immunohistological examination are shown in FIG. 10.
To verify the identities of the cells observed in the histological analysis, immunohistological examination was conducted. Pancreata were sequentially stained with either anti-glucagon antibody, which is specific for glucon-producing […], or with anti-insulin antibodies, which is specific for insulin-producing β-cells. When untreated pancreas is stained with anti-insulin antibodies, no signal is detected. This is consistent with the destruction of β-cells in T1D. Staining of these cells with anti-glucagon antibodies identifies glucagon producing […]. Normal islets have a loaf-shaped structure with the outside of the islet containing […] and the inside of the islet containing β-cells. […] The structure of the islets was more normal as indicated by the staining pattern with anti-glucagon antibodies FIG. 10D.

| Substance | change in Rt as compared to the negative control (rabbit ileum; 100 μg peptide alone) | decrease of the effect of ZOT on Rt (rabbit ileum; pre-treatment for 20 min with 100 μg peptide, then 1.0 μg 6×His-ZOT) | decrease of the effect of zonulinh on Rt (rabbit ileum; pre-treatment for 20 min with 100 μg peptide, then 1.0 μg zonulinh) | decrease of the effect of zonulini on Rt (rabbit ileum; pre-treatment for 20 min with 100 μg peptide, then 1.0 μg zonulini) | rats that developed diabetes by age 80 days (BB/Wor rats) | treated rats that did not develop diabetes (BB/Wor rats) | animals that developed diabetes under continued treatment (BBDP rats; continued treatment after 120 days, arm T1) | anti-glutamic acid decarboxylase (GAD) antibodies (BBDP rats; following treatment) | average age of onset of T1D (BBDP rats; treated group) | animals that progressed to T1D (BBDP rats; treatment arm T0, in drinking water from age 52-54 days) | rats that developed diabetes (BBDP rats; treatment arm T0, treated group n=20) | progression to T1D (BBDP rats; up to age 205 days (150 days post-treatment)) | animals that developed diabetes after treatment was withdrawn (fraction) (BBDP rats; withdrawal after 120 days) | onset of T1D after withdrawal of treatment (BBDP rats; withdrawal at age 120 days, arm T1) | pancreas histology (haematoxylin and eosin) [1] | pancreatic islet immunohistology (insulin and glucagon staining) [1] | inhibitory effect on the Rt change induced by ZOT, zonulini and zonulinh (rabbit ileum; pre-exposure for 20 min to 100 μg peptide) |
| --- | --- | --- | --- | --- | --- | --- | --- | --- | --- | --- | --- | --- | --- | --- | --- | --- | --- |
| GGVLVQPG [FZI/O, synthetic octapeptide corresponding to amino acid residues 8-15 of human fetal zonulin] | 0.5% | 75% | 100% | 97% | 40% | 60% | none | significant reduction | 86.0 ± 10.3 days | 35% | 7 of 20 | significantly reduced | ⅓ | 33% | evidence of the regeneration of β-cells was observed; also recorded: either normal islet histology or islet showing signs of recovery from insulitis; also recorded: perivascular inflammation without insulitis | preserved islets with detectable insulin-producing beta cells; also recorded: islets that were either undamaged (C and D) or showed signs of recovery from an insulitis insult |  |
| FZI/1: second synthetic peptide: Gly in position 8, Val in position 12, Gln in position 13 changed to residues of zonulinb (Val, Gly, Arg) (VGVLGRPG; sythetic peptide) [reference compound] |  |  |  |  |  |  |  |  |  |  |  |  |  |  |  |  | completely ablated |
